Reference: patent publication US20150139957A1, “GROWTH ENHANCING ADDITIVE FROM POMEGRANATE PLANT FOR POULTRY FEED” (GANIR (1992) LTD., priority 2012, published 2015)

Legend:
Ross male broilers [1] = assay: Example 2: broiler trial testing the efficacy of a taste masking agent; type: in vivo; conditions: alternative probiotic growth additive, treatment 5
Text: The objective of this trial was to test the efficacy of a taste masking agent. The trial examined the performance parameters in 2000 Ross male broilers randomly divided into 5 treatment groups. All broilers were fed mash feed ad libitum. Treatment 1, negative control, without addition of any growth promoter in feed, treatment 2, positive control with an antibiotic growth promoter avilamycin (Maxus™), treatment 3 received 2 kg additive PE1 of the invention per ton feed, treatment 4 received 2 kg additive PE1 of the invention per ton feed with a taste masking agent including thaumatin, and treatment 5 received an alternative probiotic growth additive (lactobacillus). Use of the masking agents improved broiler body weight results from 28-44 d period by 4.2% (1480 g vs 1420 g). Final body weight results at 44 d was improved by 3.6% in those broilers that received the masking agent as compared to those without. (2748 vs 2652). Feed conversion improved by 5.4% in those broilers receiving masking agent (1.84 instead of 1.94 kg/kg).

Ross male broilers [2] = assay: Example 1: 42 d broiler trial, antibiotic in the feed present, absent or replaced; type: in vivo; conditions: PE1 4 kg per ton feed
Procedure: The effects of presence/absence/replacement of the antibiotics in the feed were examined. A group of 2000 Ross male broilers were randomly divided into four treatments and fed a mesh diet ad libitum. […] Body weight, feed intake and mortality were measured during the 42 d broiler trial. At the end of the trial, feed conversion was calculated and % cumulative mortality was recorded. Results indicated a 4.1% improved feed conversion in those birds which received an antibiotic growth promoter (Maxus™), compared to negative control (1.758 and 1.834 respectively). The addition of pomegranate extract powder improved feed conversion by 4.9% as compared to negative control treatment (1.744 and 1.834 respectively). Mortality results at end of trial were as follows: negative control 4.1%, antibiotic growth promoter 3.6% and pomegranate extract powder 1.4%.

| Compound | body weight throughout the trial versus both pomegranate extract groups (Ross male broilers [1]) | cumulative mortality at end of trial (Ross male broilers [2]; 42 d trial, negative control 4.1%) [%] | improved feed conversion compared to negative control (Ross male broilers [2]; end of 42 d trial, diet ad libitum) [%] | feed conversion (Ross male broilers [2]; end of 42 d trial, negative control 1.834) |
| --- | --- | --- | --- | --- |
| lactobacillus | consistently lower |  |  |  |
| COC[C@H]1O[C@@H](OC2OC[C@@H]3O[C@]4(O[C@H]3[C@H]2OC(=O)C(C)C)O[C@H](C)[C@@](O)(C(C)=O)[C@@H]2OCO[C@H]24)[C@@H](OC)[C@@H](O)[C@@H]1O[C@@H]1O[C@H](C)[C@H](OC)[C@H](O[C@H]2C[C@@]3(C)OC4(C[C@@H](O)[C@H](O[C@H]5C[C@@H](O)[C@H](OC(=O)c6c(C)c(Cl)c(O)c(Cl)c6OC)[C@@H](C)O5)[C@@H](C)O4)O[C@@H]3[C@@H](C)O2)[C@H]1O (stereo partly shown) [avilamycin] |  | 3.6 | 4.1 | 1.758 |
